The values that follow come from ChEMBL document CHEMBL1926510, “Naphthoquinone-like polyketide isolated from Streptomyces sp. RI-77 and its predicted biosynthetic pathway” (J Nat Prod, 2011).

Active and inactive are the calls of the source. The rule behind the calls is not given here.

Test [1] in a line: Antioxidant activity assessed as DPPH radicle scavenging activity after 30 mins by spectrometric analysis. The class given is functional. On the technique in general: Loss of DPPH colour is used to gauge radical scavenging.
A further test relates to Micrococcus luteus. The test is described as follows: Antibacterial activity Micrococcus luteus. The class given is functional, organism-based.
In the next test the test system is Escherichia coli. Description: Antibacterial activity Escherichia coli. The class given is functional, organism-based.

`COc1cc(O)c2c(c1O)C(=O)[C@@]13C[C@H]4[C@@H](C[C@H]1C(C)=O)OC(=O)[C@@]4(OC)C(O)=C3C2=O`: the IC50 (as a rule, the concentration needed to halve the response being measured) in test [1] was determined as 165 µM. Further, the result in the test with Micrococcus luteus and in the test with Escherichia coli was inactive.
As for `Cc1c(C)c2c(c(C)c1O)CC[C@@](C)(CCC[C@H](C)CCC[C@H](C)CCCC(C)C)O2` [ALPHA-TOCOPHEROL], the IC50 in test [1] came to 28 µM.
